Measurements reported in US9157074B2, “Beta-amylase, gene coding therefor and manufacturing method thereof” (Amano Enzyme Inc., priority 2008, dated 2015).
Entries after “also recorded” stand apart in the source; their conditions may differ.

B1: β-amylase: purified β-amylase from Bacillus flexus APC9451, amino acid sequence SEQ ID NO: 7; final HiLoad 16/60 Superdex200 stage (protein, listed as Bacillus flexus)
chain: MYKPIKKFASLIVLLSFVAAFILGPTNSQAAVNGQSFNSNYKTYLMAPLKKVTEFTTWEAFENDLRKAKQNGFYAVTVDFWWGDMEKNGDQQFDFSYAQRFAQAARNAGIKMVPIISTHQCGGNVGDDCNTPLPSWIWNTKTDDSLYFKSETGTVNKETVNPLATDVITKQYGELYTAFAQALAPYKDVIPKVYLSGGPAGELRYPSYTAADGTGYPSRGKFQAYTDFAKSKFQMWAVNKYGSLAGVNQAWGLSLTSTSQILPPSDGNQFLKDGYNTNYGKDFLEWYQGVLQDHAKRIGALAHQAFDPVFNVPVGAKIAGIHWQYNNPTMPHAAEKPAGYNNYSTLLDSFKTAKLDLTFTCLEMVDSGTYPEYSMPKTLVKEVASLANAKGIVLNGENALSIGSEEQYKRAAEMTFNYNFAGFTLLRFYDVINNSTRMSQFNQHLNIKPVAQTMVVKNAPTSSGESVYIVGDRPELGQWDTIAYPIKLSYNSTYGDWRGTVNFPADRSVQFKAIIKRSDGSLKSWQPTQQYWNVPGTPTTYTNNW

Tests used:
β-amylase [1] = assay: Effect of metal ion and inhibitor on β-amylase activity; format: biochemical, Bacillus flexus; settings: 30° C., 30 minutes; for Relative activity: 1 mM metal ion or inhibitor, pH 5.0, not added = 100%; for effect on activity: 1 mM
Method: (§1) The activity of β-amylase was measured as follows. To 0.5 ml of 0.1M phosphate-HCl buffer solution (pH 5.0) containing 1% soluble starch and 10 mM calcium acetate, 0.5 ml of enzyme solution was added. The mixture was incubated at 37° C. for 30 minutes. Then, 2.5 ml of DNS solution (0.2% DNS, 80 mM NaOH, 0.2 M potassium sodium tartrate tetrahydrate) was added to the mixture so as to stop the reaction. After the reaction was stopped, the reaction mixture was boiled for five minutes, the absorbance was measured at the wavelength of 530 nm. The enzyme amount when the absorbance measured at the wavelength of 530 nm is 1 is defined as one unit.
To β-amylase in 0.1 M acetic acid-hydrochloric acid buffer solution (pH 5.0) containing 10 mM calcium acetate, 1 mM of various metal ions or inhibitor were added, respectively, treated at 30° C. for 30 minutes, and then the activity was measured by the above-mentioned β-amylase activity. The values were shown as the relative activity when the metal ion and inhibitor were not added is defined as 100%. The activity was inhibited by Cu ion, iodine acetic acid, PCMB, and SDS.

β-amylase [2] = assay: Substrate specificity of β-amylase; format: biochemical, Bacillus flexus; settings: for Relative activity (%): activity with respect to soluble starch = 100%, oligosaccharides 0.5%, 0.1 u/ml enzyme, 37° C., 30 minutes, maltose by HPLC; for substrate specificity (words): relative to soluble starch = 100%
Method: as §1
The β-amylase activity with respect to each substrate was examined. The values are shown as the relative activity when the activity with respect to soluble starch is defined as 100%. As to oligosaccharides, the production amount of maltose was examined by the below-mentioned quantification amount of maltose. After 0.1 u/ml enzyme was reacted to 0.5% of each maltooligosaccharide at 37° C. for 30 minutes, quantification of maltose was carried out by HPLC (Aminex carbohydrate HPX-42A, BIO-RAD). A production amount of maltose when the substrate is soluble starch is defined as 100%, the relative activity with respect to each maltooligosaccharide was calculated from the production amount of maltose.
The values were shown as the relative activity when a production amount of maltose with respect to soluble starch is defined as 100%.

[3] = β-amylase specific activity at each purification stage; format: biochemical
Method: as §1
Bacillus flexus APC9451 was cultured with shaking at 30° C. for three days by using a liquid medium having the compositions shown in Table 1. The obtained culture supernatant solution was four-times concentrated by using an UF membrane (AIP-0013, Asahi Kasei Corporation), and then ammonium sulfate was added thereto so as to obtain 60% saturation concentration. The precipitate fraction was dissolved again in 20 mM acetic acid buffer solution (pH 5.5). Then, to the mixture solution, ammonium sulfate was added so as to obtain 20% saturation concentration. […]

[4] = Optimum reaction temperature of β-amylase; format: biochemical; settings: pH 5.0, reaction temperatures 25 to 70° C.
Method: as §1
According to the above-mentioned β-amylase activity measurement method, reaction was carried out at the reaction temperatures of 25° C., 37° C., 50° C., 55° C., 60° C., 65° C., and 70° C. […] The optimum reaction temperature was around 55° C. (FIG. 1).

[5] = Optimum reaction pH of β-amylase; format: biochemical; settings: 1% soluble starch, 37° C., 10 minutes; citric acid buffer pH2-4, Britton-Robinson buffer pH4-11
Method: For the substrate, 1% soluble starch was used, and the measurement was carried out in each buffer solution (citric acid buffer: pH2, pH3, and pH4, Britton-Robinson buffer: pH4, pH5, pH6, pH7, pH8, pH9, pH10, and pH11) at 37° C. for 10 minutes. […] The optimum reaction pH was about 8.0 (FIG. 2).

[6] = Thermostability (remaining activity after heat treatment); format: physicochemical
Method: as §1
The enzyme solution (20 u/ml) was subjected to heat treatment in 0.1 M acetic acid-hydrochloric acid buffer solution (pH 5.0) containing 10 mM calcium acetate at each temperature of 37° C., 50° C., 55° C., 60° C., 65° C. and 70° C. for 10 minutes, and then the remaining activity was measured by the above-mentioned β-amylase activity measurement method. The values are shown as the remaining activity when the remaining activity with no heat treatment is defined as 100%. […] (FIG. 3).

pH stability = format: physicochemical; settings: pH 4 to 9, 30° C., three hours
Method: as §1
β-amylase was treated in each of the buffer solutions (citric acid buffer: pH2, pH3, and pH4, Britton-Robinson buffer: pH4, pH5, pH6, pH7, pH8, pH9, pH10, and pH11) at 30° C. for three house, and then the activity was measured by the above-mentioned β-amylase activity measurement method. […] The […] was 4 to 9 (FIG. 4).

[7] = Isoelectric point by isoelectric point precipitation using Ampholine; format: physicochemical; settings: 600V, 4° C., 48 hours
Method: When the isoelectric point of the present enzyme was measured by isoelectric point precipitation using Ampholine (electrification at 600V, at 4° C., for 48 hours), it was 9.7.

Row | Molecule | Relative activity (β-amylase [1]) | Relative activity (%) (β-amylase [2]) | further results
1 | [Ca+2] [Ca^2+] | 130% |  | 
2 | [Cu+2] [Cu^2+] | 46% |  | effect on activity (β-amylase [1]): inhibited
3 | [Fe+2] [Fe^2+] | 105% |  | Relative activity (β-amylase [1]; listed as Fe^3+): 113%
4 | [K+] [K^+] | 96% |  | 
5 | OC[C@H]1O[C@H](O[C@H]2[C@H](O)[C@@H](O)[C@@H](O[C@H]3[C@H](O)[C@@H](O)[C@@H](O[C@H]4[C@H](O)[C@@H](O)C(O)O[C@@H]4CO)O[C@@H]3CO)O[C@@H]2CO)[C@H](O)[C@@H](O)[C@@H]1O (stereo partly shown) [Maltotetraose] |  | 75% | 
6 | [Mg+2] [Mg^2+] | 103% |  | 
7 | [Mn+2] [Mn^2+] | 222% |  | 
8 | CCN1C(=O)C=CC1=O [N-ethylmaleimide] | 93% |  | 
9 | [Na+] [Na^+] | 88% |  | 
10 | O=C(O)c1cc[c]([Hg][Cl])cc1 [PCMB] | 25% |  | effect on activity (β-amylase [1]): inhibited
11 | CCCCCCCCCCCCOS(=O)(=O)[O-].[Na+] [SDS] | 37% |  | effect on activity (β-amylase [1]): inhibited
12 | [Zn+2] [Zn^2+] | 96% |  | 
13 | O=C(O)CI [monoiodoacetic acid] | 14% |  | effect on activity (β-amylase [1]): inhibited
14 | OC[C@H]1O[C@@H]2O[C@H]3[C@H](O)[C@@H](O)[C@@H](O[C@H]4[C@H](O)[C@@H](O)[C@@H](O[C@H]5[C@H](O)[C@@H](O)[C@@H](O[C@H]6[C@H](O)[C@@H](O)[C@@H](O[C@H]7[C@H](O)[C@@H](O)[C@@H](O[C@H]1[C@H](O)[C@H]2O)O[C@@H]7CO)O[C@@H]6CO)O[C@@H]5CO)O[C@@H]4CO)O[C@@H]3CO [α-cyclodextrin] |  | 0% | 
15 | OC[C@H]1O[C@@H]2O[C@H]3[C@H](O)[C@@H](O)[C@@H](O[C@H]4[C@H](O)[C@@H](O)[C@@H](O[C@H]5[C@H](O)[C@@H](O)[C@@H](O[C@H]6[C@H](O)[C@@H](O)[C@@H](O[C@H]7[C@H](O)[C@@H](O)[C@@H](O[C@H]8[C@H](O)[C@@H](O)[C@@H](O[C@H]1[C@H](O)[C@H]2O)O[C@@H]8CO)O[C@@H]7CO)O[C@@H]6CO)O[C@@H]5CO)O[C@@H]4CO)O[C@@H]3CO [β-cyclodextrin] |  | 1.4% | 
16 | OC[C@H]1O[C@@H]2O[C@H]3[C@H](O)[C@@H](O)[C@@H](O[C@H]4[C@H](O)[C@@H](O)[C@@H](O[C@H]5[C@H](O)[C@@H](O)[C@@H](O[C@H]6[C@H](O)[C@@H](O)[C@@H](O[C@H]7[C@H](O)[C@@H](O)[C@@H](O[C@H]8[C@H](O)[C@@H](O)[C@@H](O[C@H]9[C@H](O)[C@@H](O)[C@@H](O[C@H]1[C@H](O)[C@H]2O)O[C@@H]9CO)O[C@@H]8CO)O[C@@H]7CO)O[C@@H]6CO)O[C@@H]5CO)O[C@@H]4CO)O[C@@H]3CO [γ-cyclodextrin-, γ-cyclodextrin] |  | 0.6% | 
17 | Maltoheptaose |  | 111% | 
18 | Maltohexaose |  | 131% | 
19 | Maltopentaose |  | 102% | 
20 | Maltotriose |  | 0% | substrate specificity (words) (β-amylase [2]): did not act; also recorded: does not substantially act
21 | cyclodextrin |  |  | substrate specificity (words) (β-amylase [2]): does not substantially act; substrate specificity (words) (β-amylase [2]; listed as Cyclodextrin): almost broken down
22 | B1 |  |  | specific activity in the final stage as compared with that of the crude enzyme ([3]; final purification stage vs crude enzyme): 2270 times; Specific activity ([3]; purification stage of β-amylase from Bacillus flexus APC9451): 1569 u/mg; optimum reaction temperature [4]: around 55 °C; optimum reaction temperature ([4]; listed as the present enzyme): about 55 °C; optimum reaction pH [5]: about 8.0; remaining activity after heat treatment ([6]; 55° C., 10 minutes, 0.1 M acetic acid-hydrochloric acid buffer pH 5.0, 10 mM calcium acetate, no heat treatment = 100%): ≥ 90%; thermostability (temperature until which stable) ([6]; pH 5.0, 10 minutes): ≤ 55 °C; activity with respect to the maximum activity after treatment (pH stability): ≥ 70%; isoelectric point [7]: 9.7
